# How the values were obtained:
# Details in all cases: treatment: drug alone; 5 days
# TK-10 [1] = assay: AUC of dose-response viability curve, drug alone (arbitrary (AUC of normalised viability)); higher = less growth inhibition
# Method: (§1)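 Primary HTS: 8 RCC cell lines treated with 8 doses (up to 10 uM) of each library drug alone for 5 days; viability read by CellTiter-Glo and normalised to DMSO. GI50 was fitted with XLfit (4-parameter), AUC is the area under the dose-response curve, and minimum viability is the lowest fraction of DMSO viability across doses.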
# 786-O [2] = assay: as above
# Method: as §1
# CAKI-1 [3] = assay: as above
# Method: as §1
# ACHN [4] = assay: as above
# Method: as §1
# 769-P [5] = assay: as above
# Method: as §1
# A498 [6] = assay: as above
# Method: as §1
# SN12C [7] = assay: as above
# Method: as §1
# UO-31 [8] = assay: as above
# Method: as §1
# TK-10 [9] = assay: GI50, drug alone; higher = less potent
# Method: as §1
# 786-O [10] = assay: GI50, drug alone; higher = less potent
# Method: as §1
# CAKI-1 [11] = assay: GI50, drug alone; higher = less potent
# Method: as §1
# ACHN [12] = assay: GI50, drug alone; higher = less potent
# Method: as §1
# 769-P [13] = assay: GI50, drug alone; higher = less potent
# Method: as §1
# A498 [14] = assay: GI50, drug alone; higher = less potent
# Method: as §1
# SN12C [15] = assay: GI50, drug alone; higher = less potent
# Method: as §1
# UO-31 [16] = assay: GI50, drug alone; higher = less potent
# Method: as §1
# TK-10 [17] = assay: minimum viability across doses, drug alone, relative to DMSO (fraction); higher = less growth inhibition
# Method: as §1
# 786-O [18] = assay: as above
# Method: as §1
# CAKI-1 [19] = assay: as above
# Method: as §1
# ACHN [20] = assay: as above
# Method: as §1
# 769-P [21] = assay: as above
# Method: as §1
# A498 [22] = assay: as above
# Method: as §1
# SN12C [23] = assay: as above
# Method: as §1
# UO-31 [24] = assay: as above
# Method: as §1
SMILES,"GI50, drug alone (786-O [10])","GI50, drug alone (ACHN [12])",AUC of dose-response viability curve (TK-10 [1]),AUC of dose-response viability curve (786-O [2]),AUC of dose-response viability curve (CAKI-1 [3]),AUC of dose-response viability curve (ACHN [4]),AUC of dose-response viability curve (769-P [5]),AUC of dose-response viability curve (A498 [6]),AUC of dose-response viability curve (SN12C [7]),AUC of dose-response viability curve (UO-31 [8]),"GI50, drug alone (TK-10 [9])","GI50, drug alone (CAKI-1 [11])","GI50, drug alone (769-P [13])","GI50, drug alone (A498 [14])","GI50, drug alone (SN12C [15])","GI50, drug alone (UO-31 [16])",minimum viability across doses (TK-10 [17]),minimum viability across doses (786-O [18]),minimum viability across doses (CAKI-1 [19]),minimum viability across doses (ACHN [20]),minimum viability across doses (769-P [21]),minimum viability across doses (A498 [22]),minimum viability across doses (SN12C [23]),minimum viability across doses (UO-31 [24])
O=C(NOC[C@H](O)CO)c1ccc(F)c(F)c1Nc1ccc(I)cc1F,0.221 µM,0.857 µM,2.1,1.88,1.95,2.15,2.27,2.54,2.31,2.63,0.848 µM,0.32 µM,0.928 µM,3.71 µM,2.34 µM,3.24 µM,0.348,0.373,0.161,0.359,0.282,0.455,0.389,0.257
O=c1cc(N2CCOCC2)oc2c(-c3ccccc3)cccc12,> 10 µM,> 10 µM,2.97,2.62,3.37,2.91,3.1,3.75,3.36,3.98,> 10 µM,> 10 µM,> 10 µM,> 10 µM,> 10 µM,> 10 µM,0.684,0.559,0.642,0.723,0.617,0.929,0.765,0.858
COc1cccc(-c2cc(=O)c3ccccc3o2)c1N,> 10 µM,> 10 µM,3.09,2.79,3.19,3.35,3.39,4.28,3.4,5.36,> 10 µM,> 10 µM,> 10 µM,> 10 µM,> 10 µM,> 10 µM,0.817,0.69,0.83,0.861,0.903,1.03,0.873,1.36
CN1CCN(c2ccc([N+](=O)[O-])c3no[n+]([O-])c23)CC1,> 10 µM,> 10 µM,2.91,2.38,3.27,2.98,2.59,3.92,3.13,3.8,> 10 µM,> 10 µM,> 10 µM,> 10 µM,> 10 µM,> 10 µM,0.3,0.536,0.881,0.822,0.865,0.889,0.832,0.867
Cc1[nH]c(/C=C2\C(=O)Nc3ccc(S(=O)(=O)Cc4c(Cl)cccc4Cl)cc32)c(C)c1C(=O)N1CCC[C@@H]1CN1CCCC1,4.16 µM,3.83 µM,3.12,2.86,3.17,3.18,2.89,3.88,2.93,4.41,4.44 µM,3.83 µM,4.02 µM,8.15 µM,4.02 µM,> 10 µM,0.00282,0.0112,0.00618,0.00233,0.00582,0.0127,0.00551,0.0156
CN(C)C1CCN(C(=O)c2ccc(NC(=O)Nc3ccc(-c4nc(N5CCOCC5)nc(N5CCOCC5)n4)cc3)cc2)CC1,0.13 µM,0.99 µM,2.09,1.73,2.56,2.66,3.1,1.83,1.39,2.48,0.472 µM,1.18 µM,5.33 µM,0.0932 µM,0.05 µM,0.451 µM,0.133,0.111,0.0321,0.167,0.162,0.162,0.112,0.0116
CCN(CC)CCCCNc1ncc2cc(-c3cc(OC)cc(OC)c3)c(NC(=O)NC(C)(C)C)nc2n1,2.36 µM,0.779 µM,2.69,2.06,2.27,2.2,3.21,3.77,2.73,3.7,4.78 µM,0.614 µM,9.27 µM,6.94 µM,8.23 µM,7.93 µM,0.348,0.00314,0.074,0.0868,0.461,0.265,0.338,0.128

# Continued, in another order:
"GI50, drug alone (786-O [10])","GI50, drug alone (ACHN [12])",SMILES,AUC of dose-response viability curve (TK-10 [1]),AUC of dose-response viability curve (786-O [2]),AUC of dose-response viability curve (CAKI-1 [3]),AUC of dose-response viability curve (ACHN [4]),AUC of dose-response viability curve (769-P [5]),AUC of dose-response viability curve (A498 [6]),AUC of dose-response viability curve (SN12C [7]),AUC of dose-response viability curve (UO-31 [8]),"GI50, drug alone (TK-10 [9])","GI50, drug alone (CAKI-1 [11])","GI50, drug alone (769-P [13])","GI50, drug alone (A498 [14])","GI50, drug alone (SN12C [15])","GI50, drug alone (UO-31 [16])",minimum viability across doses (TK-10 [17]),minimum viability across doses (786-O [18]),minimum viability across doses (CAKI-1 [19]),minimum viability across doses (ACHN [20]),minimum viability across doses (769-P [21]),minimum viability across doses (A498 [22]),minimum viability across doses (SN12C [23]),minimum viability across doses (UO-31 [24])
> 10 µM,3.93 µM,C=CC(=O)N1CCC[C@@H](n2nc(-c3ccc(Oc4ccccc4)cc3)c3c(N)ncnc32)C1,2.31,2.3,3.19,2.53,2.53,6.43,2.88,4.29,1.43 µM,7.05 µM,1.83 µM,> 10 µM,> 10 µM,> 10 µM,0.225,0.529,0.335,0.394,0.301,0.946,0.706,0.949
3.88 µM,0.36 µM,CC(=O)c1c(C)c2cnc(Nc3ccc(N4CCNCC4)cn3)nc2n(C2CCCC2)c1=O.Cl,2.43,2.8,2.44,2.04,2.31,4.74,3.17,4.32,1.44 µM,0.811 µM,0.659 µM,> 10 µM,7.21 µM,> 10 µM,0.185,0.298,0.123,0.136,0.0631,0.644,0.427,0.549
0.163 µM,0.179 µM,COc1ccc(-c2cc3c(C)nc(N)nc3n([C@H]3CC[C@H](OCCO)CC3)c2=O)cn1,1.72,1.76,1.78,1.79,2.05,2.91,1.98,2.06,0.153 µM,0.206 µM,0.386 µM,1.02 µM,0.291 µM,0.255 µM,0.0289,0.00335,0.0249,0.067,0.0177,0.193,0.0766,0.00736

# Source: the supplement of paper PMC8149375
